The values that follow come from patent publication US11066455B2, “Tmem100 peptides and variants thereof and their use in treating or preventing diseases or conditions” (The Johns Hopkins University, priority 2014, dated 2021).

“Also recorded” adds a separate entry of the source.

In test [1] the test system is SNL-induced mechanical hyperalgesia in wild-type mice. Briefly: Spinal nerve ligation (SNL) in wild-type mice, mechanical hyperalgesia. The conditions noted are these: day 6 post ligation, 4 hrs post CPP; 5 μl of 2 mM intradermal in hindpaws. Type of test: in vivo, mouse. The procedure:
In the wild-type mice with spinal nerve ligation (SNL), mechanical hyperalgesia is observed 6 days post ligation. Palmitoylated (Pal) CPP tailored to the C-terminus of human Tmem100-3Q alleviates neuropathic pain/mechanical allodynia in SNL. n=6, *p<0.05 at Day 6 4 hrs post CPP treatment. Scrambled: open bar; human P2-Mut (T100-Mut): black bar (FIG. 17). Peptides (5 μl of 2 mM) were injected intradermally in the hindpaws. Sequences for CPP used in the SNL experiment:
Human P2-Mut (T100-Mut) Pal-[…]-OH (SEQ ID NO: 7); Scrambled Pal-[…]-OH (SEQ ID NO: 19). Pal-palmitoylated in the N termini for each CPP.

The subject of test [2] is paclitaxel (Taxol)-induced mechanical hyperalgesia in wild-type mice. The test is described as follows: Paclitaxel-induced mechanical hyperalgesia. Type of test: in vivo, mouse. Conditions: F2 5 μl 100 μM intradermal injection. The protocol:
Mice were placed in a transparent plastic box (4.5×5×10 cm) on a metal mesh and acclimatized for 30 minutes prior to testing. Each mouse was tested more than 5 times at a specific force manually, and the threshold was determined by the lowest force needed to elicit responses more than 50% of the time.
Mice were injected with paclitaxel (Sigma T7191) intraperitoneally at the dose of 6 mg/kg, as previously described (Materazzi et al., 2012). Seven days after paclitaxel injection, the mice were assayed with Von Frey methods for mechanical hyperalgesia, both before and four hours after injection of cell permeable peptides.

For the next test, the system named is T1, TRPA1.
T1 construct: percentage of cells responsive to CA; other: shortened CPP 2 μM; CA 10 μM; HEK293 TRPA1+TRPV1; vs scrambled; percentage of cells responsive to MO; other: peptide 200 nM pre-treatment; 500 nM MO; HEK293T TRPA1+TRPV1; percentage of cells that respond to 100 nM MO and 10 μM CA; other: HEK293T TRPA1+TRPV1, Tmem100-3Q-transfected vs lacki; reduction in the percentage of cells responding to MO
The test is described as follows: Calcium imaging of HEK293T cells expressing TRPA1 and TRPV1 (MO or CA). It is filed as cell-based. The conditions noted are these: shortened CPP 2 μM; CA 10 μM; HEK293 TRPA1+TRPV1; vs scrambled.

On to “F2: shortened CPP consisting of the first 18 amino acids of the T100-Mut (SEQ ID NO: 17) (WKVRQRNKKVQQQESQTA; listed as Mus musculus)”, for which the “SNL-induced mechanical hyperalgesia / allodynia in mice” value in test [1] is “blocked”. The paclitaxel-induced mechanical hyperalgesia entry in test [2] was “effective”. Besides, the “percentage of cells responsive to CA” value in the test with TRPA1 was “significantly reduced; also recorded: same inhibitory effects”.
